Molecular target: VMAT2 (Homo sapiens (Human), UniProt Q05940)
Experiment: VMAT2 radioligand binding assay: competition against 3H-dihydrotetrabenezine on human platelet homogenate (modified procedure)
Conditions: 10 nM 3H-dihydrotetrabenezine, 25° C., 90 minutes
Procedure: Examples of techniques for determining the capability of a compound to inhibit VMAT2 are provided below. The procedure is adapted from that described previously (see, e.g., Near, (1986), Mol. Pharmacol. 30: 252-57; Teng, et al., J. Neurochem. 71, 258-65, 1998). Homogenates from human platelets or Sprague-Dawley rat forebrain were prepared by homogenization and then washed by centrifugation as described previously (see, e.g., Hoare et al., (2003) Peptides 24:1881-97). […] Following incubation at 25° C. for two hours, bound radioligand was collected by rapid filtration onto GF/B glass fiber filters using a Unifilter-96 Harvester (PerkinElmer). Filter plates were pre-treated for 10 minutes with 0.1% polyethylenimine, and following harvesting the filter plates were washed with 800 μl VMAT2 binding buffer. Bound radioligand was quantified by scintillation counting using a Topcount NXT (PerkinElmer).
Following incubation at 25° C. for 90 minutes, bound radioligand was collected by rapid filtration onto GF/B glass fiber filters using a Unifilter-96 Harvester (PerkinElmer). Filter plates were pre-treated with 0.1% polyethylenimine and allowed to dry overnight, and following harvesting the filter plates were washed with 800 μl VMAT2 binding buffer. Bound radioligand was quantified by scintillation counting using a Topcount NXT (PerkinElmer).

Chain of VMAT2 (Q05940 whole entry): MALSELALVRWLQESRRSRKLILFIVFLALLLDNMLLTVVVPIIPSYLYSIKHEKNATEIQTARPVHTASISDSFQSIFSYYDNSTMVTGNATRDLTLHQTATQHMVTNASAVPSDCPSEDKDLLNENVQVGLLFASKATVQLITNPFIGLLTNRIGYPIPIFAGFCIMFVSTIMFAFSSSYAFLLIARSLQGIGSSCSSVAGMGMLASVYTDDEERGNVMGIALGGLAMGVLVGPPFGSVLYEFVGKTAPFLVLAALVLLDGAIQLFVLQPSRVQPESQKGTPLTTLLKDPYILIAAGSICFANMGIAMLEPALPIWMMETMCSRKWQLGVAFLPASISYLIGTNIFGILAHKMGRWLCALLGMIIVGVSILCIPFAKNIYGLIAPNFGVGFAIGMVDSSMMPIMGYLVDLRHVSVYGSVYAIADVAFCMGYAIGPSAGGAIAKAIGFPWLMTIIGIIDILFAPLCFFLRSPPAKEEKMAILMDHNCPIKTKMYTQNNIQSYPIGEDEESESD

Structure (SMILES)	Ki
COc1cc2c(cc1OCCC(F)(F)F)CCN1C[C@@H](CC(C)C)N(C)C[C@H]21 [Compound 5-19, (3R,11bS)-10-methoxy-2-methyl-3-(2-methylpropyl)-9-(3,3,3-trifluoropropoxy)-1H,2H,3H,4H,6H,7H,11bH-piperazino[2,1-a]isoquinoline]	< 10 nM
COc1cc2c(cc1OC(C)C)CCN1C[C@@H](CC(C)C)N(C)C[C@@H]21 [Compound 6-1, (3R,11bR)-10-methoxy-2-methyl-3-(2-methylpropyl)-9-(propan-2-yloxy)-1H,2H,3H,4H,6H,7H,11bH-piperazino[2,1-a]isoquinoline]	> 500 nM
COc1cc2c(cc1OCCCF)CCN1C[C@@H](CC(C)C)N(C)C[C@@H]21 [Compound 6-2, (3R,11bR)-9-(3-fluoropropoxy)-10-methoxy-2-methyl-3-(2-methylpropyl)-1H,2H,3H,4H,6H,7H,11bH-piperazino[2,1-a]isoquinoline]	> 500 nM
COc1cc2c(cc1OCCF)CCN1C[C@@H](CC(C)C)N(C)C[C@@H]21 [Compound 6-3, (3R,11bR)-9-(2-fluoroethoxy)-10-methoxy-2-methyl-3-(2-methylpropyl)-1H,2H,3H,4H,6H,7H,11bH-piperazino[2,1-a]isoquinoline]	> 500 nM
COc1cc2c(cc1OC1CC1)CCN1C[C@@H](CC(C)C)N(C)C[C@@H]21 [Compound 6-4, (3R,11bR)-9-cyclopropoxy-10-methoxy-2-methyl-3-(2-methylpropyl)-1H,2H,3H,4H,6H,7H,11bH-piperazino[2,1-a]isoquinoline]	> 500 nM
COc1cc2c(cc1OCCCF)CCN1C[C@@H](CC3CCC3)N(C)C[C@H]21 [Compound 8-1, (3R,11bS)-3-(cyclobutylmethyl)-9-(3-fluoropropoxy)-10-methoxy-2-methyl-1H,2H,3H,4H,6H,7H,11bH-piperazino[2,1-a]isoquinoline]	10 to 500 nM
COc1cc2c(cc1OCC(F)(F)F)CCN1C[C@@H](CC3CCC3)N(C)C[C@H]21 [Compound 8-2, (3R,11bS)-3-(cyclobutylmethyl)-10-methoxy-2-methyl-9-(2,2,2-trifluoroethoxy)-1H,2H,3H,4H,6H,7H,11bH-piperazino[2,1-a]isoquinoline]	< 10 nM
COc1cc2c(cc1OCC1CC1(F)F)CCN1C[C@@H](CC3CCC3)N(C)C[C@H]21 (stereo partly drawn) [Compound 8-3, (3R,11bS)-3-(cyclobutylmethyl)-9-[(2,2-difluorocyclopropyl)methoxy]-10-methoxy-2-methyl-1H,2H,3H,4H,6H,7H,11bH-piperazino[2,1-a]isoquinoline]	10 to 500 nM
COc1cc2c(cc1OCCF)CCN1C[C@@H](CC3CCC3)N(C)C[C@H]21 [Compound 8-4, (3R,11bS)-3-(cyclobutylmethyl)-9-(2-fluoroethoxy)-10-methoxy-2-methyl-1H,2H,3H,4H,6H,7H,11bH-piperazino[2,1-a]isoquinoline]	10 to 500 nM
COc1cc2c(cc1OCC1CC1)CCN1C[C@@H](CC3CCC3)N(C)C[C@H]21 [Compound 8-5, (3R,11bS)-3-(cyclobutylmethyl)-9-(cyclopropylmethoxy)-10-methoxy-2-methyl-1H,2H,3H,4H,6H,7H,11bH-piperazino[2,1-a]isoquinoline]	10 to 500 nM
COc1cc2c(cc1OCC1CCC1)CCN1C[C@@H](CC3CCC3)N(C)C[C@H]21 [Compound 8-6, (3R,11bS)-9-(cyclobutylmethoxy)-3-(cyclobutylmethyl)-10-methoxy-2-methyl-1H,2H,3H,4H,6H,7H,11bH-piperazino[2,1-a]isoquinoline]	< 10 nM
COc1cc2c(cc1OCCCC(F)(F)F)CCN1C[C@@H](CC3CCC3)N(C)C[C@H]21 [Compound 8-7, (3R,11bS)-3-(cyclobutylmethyl)-10-methoxy-2-methyl-9-(4,4,4-trifluorobutoxy)-1H,2H,3H,4H,6H,7H,11bH-piperazino[2,1-a]isoquinoline]	10 to 500 nM
COc1cc2c(cc1OCCCCF)CCN1C[C@@H](CC3CCC3)N(C)C[C@H]21 [Compound 8-8, (3R,11bS)-3-(cyclobutylmethyl)-9-(4-fluorobutoxy)-10-methoxy-2-methyl-1H,2H,3H,4H,6H,7H,11bH-piperazino[2,1-a]isoquinoline]	10 to 500 nM
COc1cc2c(cc1OCCCF)CCN1C[C@@H](CC3CCC3)N(C)C[C@@H]21 [Compound 9-1, (3R,11bR)-3-(cyclobutylmethyl)-9-(3-fluoropropoxy)-10-methoxy-2-methyl-1H,2H,3H,4H,6H,7H,11bH-piperazino[2,1-a]isoquinoline]	> 500 nM
COc1cc2c(cc1OCCCF)CCN1C[C@@H](CC(C)(C)C)N(C)C[C@H]21 [Compound 11-1, (3R,11bS)-3-(2,2-dimethylpropyl)-9-(3-fluoropropoxy)-10-methoxy-2-methyl-1H,2H,3H,4H,6H,7H,11bH-piperazino[2,1-a]isoquinoline]	< 10 nM
COc1cc2c(cc1OC)[C@H]1CN(C)[C@H](CC(C)(C)C)CN1CC2 [Compound 11-2, (3R,11bS)-3-(2,2-dimethylpropyl)-9,10-dimethoxy-2-methyl-1H,2H,3H,4H,6H,7H,11bH-piperazino[2,1-a]isoquinoline]	< 10 nM
COc1cc2c(cc1OCC(F)(F)F)CCN1C[C@@H](CC(C)(C)C)N(C)C[C@H]21 [Compound 11-3, (3R,11bS)-3-(2,2-dimethylpropyl)-10-methoxy-2-methyl-9-(2,2,2-trifluoroethoxy)-1H,2H,3H,4H,6H,7H,11bH-piperazino[2,1-a]isoquinoline]	< 10 nM
COc1cc2c(cc1OCC1CC1(F)F)CCN1C[C@@H](CC(C)(C)C)N(C)C[C@H]21 (stereo partly drawn) [Compound 11-4, (3R,11bS)-9-[(2,2-difluorocyclopropyl)methoxy]-3-(2,2-dimethylpropyl)-10-methoxy-2-methyl-1H,2H,3H,4H,6H,7H,11bH-piperazino[2,1-a]isoquinoline]	< 10 nM
COc1cc2c(cc1OCCC(F)(F)F)CCN1C[C@@H](CC(C)(C)C)N(C)C[C@H]21 [Compound 11-5, (3R,11bS)-3-(2,2-dimethylpropyl)-10-methoxy-2-methyl-9-(3,3,3-trifluoropropoxy)-1H,2H,3H,4H,6H,7H,11bH-piperazino[2,1-a]isoquinoline]	< 10 nM
COc1cc2c(cc1OCCF)CCN1C[C@@H](CC(C)(C)C)N(C)C[C@H]21 [Compound 11-6, (3R,11bS)-3-(2,2-dimethylpropyl)-9-(2-fluoroethoxy)-10-methoxy-2-methyl-1H,2H,3H,4H,6H,7H,11bH-piperazino[2,1-a]isoquinoline]	< 10 nM
COc1cc2c(cc1OCC1CC1)CCN1C[C@@H](CC(C)(C)C)N(C)C[C@H]21 [Compound 11-7, (3R,11bS)-9-(cyclopropylmethoxy)-3-(2,2-dimethylpropyl)-10-methoxy-2-methyl-1H,2H,3H,4H,6H,7H,11bH-piperazino[2,1-a]isoquinoline]	< 10 nM
COc1cc2c(cc1OCC1CCC1)CCN1C[C@@H](CC(C)(C)C)N(C)C[C@H]21 [Compound 11-8, (3R,11bS)-9-(cyclobutylmethoxy)-3-(2,2-dimethylpropyl)-10-methoxy-2-methyl-1H,2H,3H,4H,6H,7H,11bH-piperazino[2,1-a]isoquinoline]	< 10 nM
COc1cc2c(cc1OCCCC(F)(F)F)CCN1C[C@@H](CC(C)(C)C)N(C)C[C@H]21 [Compound 11-9, (3R,11bS)-3-(2,2-dimethylpropyl)-10-methoxy-2-methyl-9-(4,4,4-trifluorobutoxy)-1H,2H,3H,4H,6H,7H,11bH-piperazino[2,1-a]isoquinoline]	< 10 nM
COc1cc2c(cc1OCCCCF)CCN1C[C@@H](CC(C)(C)C)N(C)C[C@H]21 [Compound 11-10, (3R,11bS)-3-(2,2-dimethylpropyl)-9-(4-fluorobutoxy)-10-methoxy-2-methyl-1H,2H,3H,4H,6H,7H,11bH-piperazino[2,1-a]isoquinoline]	< 10 nM
COCCOc1cc2c(cc1OC)[C@H]1CN(C)[C@H](CC(C)(C)C)CN1CC2 [Compound 11-11, (3R,11bS)-3-(2,2-dimethylpropyl)-10-methoxy-9-(2-methoxyethoxy)-2-methyl-1H,2H,3H,4H,6H,7H,11bH-piperazino[2,1-a]isoquinoline]	10 to 500 nM
CCOc1cc2c(cc1OC)[C@H]1CN(C)[C@H](CC(C)(C)C)CN1CC2 [Compound 11-12, (3R,11bS)-3-(2,2-dimethylpropyl)-9-ethoxy-10-methoxy-2-methyl-1H,2H,3H,4H,6H,7H,11bH-piperazino[2,1-a]isoquinoline]	< 10 nM
COc1cc2c(cc1OC(C)C)CCN1C[C@@H](CC(C)(C)C)N(C)C[C@H]21 [Compound 11-13, (3R,11bS)-3-(2,2-dimethylpropyl)-10-methoxy-2-methyl-9-(propan-2-yloxy)-1H,2H,3H,4H,6H,7H,11bH-piperazino[2,1-a]isoquinoline]	< 10 nM
COc1cc2c(cc1OCCCF)CCN1C[C@@H](CC(C)(C)C)N(C)C[C@@H]21 [Compound 12-1, (3R,11bR)-3-(2,2-dimethylpropyl)-9-(3-fluoropropoxy)-10-methoxy-2-methyl-1H,2H,3H,4H,6H,7H,11bH-piperazino[2,1-a]isoquinoline]	10 to 500 nM
COc1cc2c(cc1OC)[C@@H]1CN(C)[C@H](CC(C)(C)C)CN1CC2 [Compound 12-2, (3R,11bR)-3-(2,2-dimethylpropyl)-9,10-dimethoxy-2-methyl-1H,2H,3H,4H,6H,7H,11bH-piperazino[2,1-a]isoquinoline]	> 500 nM

Source: patent US11040970B2, “VMAT2 inhibitor compounds and compositions thereof” (Neurocrine Biosciences, Inc., priority 2017, dated 2021)
